No end group written: not given here.
Assays:
[1] = biological target: T1, CB1 receptor (Homo sapiens, UniProt P21554); experiment: ELISA with striate membranes and anti-CB1 antibody, receptor activating percentage regarding the control; type: biochemical; settings: for activity in CB1 receptors: striate membranes 5µg/pool, 1µM of each drug, 2 hours, ambient temperature, compared to control and SeqID:1
T1 construct: ligand for CB1 receptor through ELISA with striate membranes (5µg/pool) treated with 1µM of each drug; from tissue; host or cells: striatal ('striate') membranes
T1 sequence (P21554 whole entry): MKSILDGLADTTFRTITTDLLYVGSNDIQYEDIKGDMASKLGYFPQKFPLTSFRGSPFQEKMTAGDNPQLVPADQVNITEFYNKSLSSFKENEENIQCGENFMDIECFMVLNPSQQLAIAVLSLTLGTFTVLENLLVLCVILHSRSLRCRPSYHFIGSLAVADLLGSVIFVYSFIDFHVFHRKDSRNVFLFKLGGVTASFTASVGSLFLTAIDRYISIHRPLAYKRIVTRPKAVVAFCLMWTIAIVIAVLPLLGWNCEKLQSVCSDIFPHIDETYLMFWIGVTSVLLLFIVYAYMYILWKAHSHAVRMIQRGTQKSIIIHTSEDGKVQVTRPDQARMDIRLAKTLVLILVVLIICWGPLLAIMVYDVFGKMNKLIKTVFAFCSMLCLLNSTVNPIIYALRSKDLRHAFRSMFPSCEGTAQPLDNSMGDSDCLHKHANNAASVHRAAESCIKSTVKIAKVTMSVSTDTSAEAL
Description: (§1) The receptor activating percentage was calculated regarding the control, non-treated membrane (100%). […] Significant differences are indicated and p<0.05.

[2] = tested on: animals supplemented with 20% saccharose; experiment: Determination of the insulinemia in animals supplemented with 20% saccharose; type: in vivo, Wistar rats; settings: 100 µg/Kg; after 30 days-treatment
Description: (§2) Wistar rats fed with standard regimen supplemented with 20% saccharose were used in the drinking water during 60 days before and during the 30 days-treatment with SALINE (negative control), Rimonabant (positive control), Peptide 19 (Pep 19) in the concentration of 50µg/Kg and Peptide 19 (Pep 19) in the concentration of 100 µg/Kg.

[3] = tested on: animals supplemented with 20% saccharose; experiment: Determination of the adiposity ratio in animals supplemented with 20% saccharose (Example 25); type: in vivo, Wistar rats; settings: 100µg/Kg; 30 days-treatment; in comparison to further groups
Description: as §2

[4] = tested on: animals supplemented with 20% saccharose; experiment: Determination of the weight in animals supplemented with 20% saccharose; type: in vivo, Rats wistar; settings: 100 µg/Kg; 3th to 5th week of treatment
Description: as §2, with “Rats wistar” for “Wistar rats”

[5] = tested on: Thin wistar rats; experiment: Test in Inguinal adipose tissue; type: in vivo; settings: 100 ug/Kg, 3 days orally; in comparison with Rimonabant and/or saline; scale g/100g
Description: The measure of the adipose tissue was performed after finishing the treatment. The results are expressed by the inguinal adipose tissue weight measured at the treatment end (scale of g/100g). Rats administered with vehicle (saline) were subject to the same protocol (control).

[6] = tested on: Thin wistar rats; experiment: Test in Retroperitoneal adipose tissue; type: in vivo; settings: 100 ug/Kg, 3 days orally; in comparison with Rimonabant and/or saline; scale g/100g
Description: The measure of the adipose tissue was performed after finishing the treatment. The results are expressed by the retroperitoneal adipose tissue weight measured for treatment purpose (scale of g/100g). Rats administered with vehicle (saline) were subject to the same protocol (control).

[7] = tested on: non-obese wistar rats; experiment: Treatment acute model, 3 days orally (Figures 4 to 9); type: in vivo
Text: Furthermore, in a treatment acute model (3 days of treatment orally in non-obese wistar rats) it was verified the brown adipose tissue activation, the retroperitoneal, inguinal and brown adipose tissues reduction, as well the adiposity ratio (Figures 4 to 9), effects not observed with Rimonabant.

[8] = tested on: animals supplemented with 20% saccharose; experiment: Determination of Triglycerides in animals supplemented with 20% saccharose; type: in vivo, Wistar rats; settings: 100 µg/Kg; after 30 days-treatment
Description: as §2

[9] = tested on: Thin wistar rats; experiment: Test in Brown adipose tissue; type: in vivo; settings: 100 ug/Kg, 3 days orally; in comparison with Rimonabant and/or saline; scale g/100g
Description: The measure of the adipose tissue was performed after finishing the treatment. The results are expressed by the brown adipose tissue weight measured at the treatment end (scale of g/100g). Rats administered with vehicle (saline) were subject to the same protocol (control).

[10] = tested on: Thin wistar rats; experiment: Serum leptin concentration determination; type: in vivo; settings: 100 ug/Kg, 3 days orally; in comparison with saline
Description: (§3) Thin wistar rats were treated with a Rimonabant dosage (100 ug/Kg) or peptide 19 (Pep 19 100 ug/Kg) during 3 days orally. The measure of the serum leptin concentration was performed after finishing the treatment. The results are expressed ng/mL. Rats administered with vehicle (saline) were subject to the same protocol (control).

[11] = tested on: Thin wistar rats; experiment: Adiposity ratio determination; type: in vivo; settings: 100 ug/Kg, 3 days orally; in comparison with Rimonabant and/or saline
Description: as §3, with “adiposity ratio” for “serum leptin concentration”, “treatment using the formula (%), (I=Σ fat deposits/body weight x 100).” for “treatment.”, “by the animal weight measured at the treatment end (scale of g/100g).” for “ng/mL.”

[12] = tested on: animals supplemented with 20% saccharose; experiment: Determination of the cholesterol in animals supplemented with 20% saccharose; type: in vivo, Wistar rats; settings: after 30 days-treatment
Description: as §2

[13] = tested on: Thin wistar rats; experiment: Test in Gonadal adipose tissue; type: in vivo; settings: 100 ug/Kg, 3 days orally; in comparison with Rimonabant and/or saline; scale g/100g
Description: The measure of the adipose tissue was performed after finishing the treatment. The results are expressed by the gonadal adipose tissue weight measured at the treatment end (scale of g/100g). Rats administered with vehicle (saline) were subject to the same protocol (control).

[14] = tested on: animals supplemented with 20% saccharose; experiment: Determination of the amount of inguinal adipose tissue in animals supplemented with 20% saccharose; type: in vivo, Wistar rats; settings: 100µg/Kg; after the 30th day of treatment; in comparison to further groups
Description: as §2

[15] = tested on: Rats; experiment: Depression model (forced swim); type: in vivo; settings: stated as contrary to Rimonabant
Description: The forced swim test was performed based on the previous tests ([Harkin et al., 2004], [Petit-Demouliere et al., 2005] and [Treit and Menard, 1998]).

[16] = tested on: Thin wistar rats; experiment: Test in Mesenteric adipose tissue; type: in vivo; settings: 100 ug/Kg, 3 days orally; in comparison with Rimonabant and/or saline; scale g/100g
Description: The measure of the adipose tissue was performed after finishing the treatment. The results are expressed by the mesenteric adipose tissue weight measured at the treatment end (scale of g/100g). Rats administered with vehicle (saline) were subject to the same protocol (control).

[17] = tested on: animals supplemented with 20% saccharose; experiment: Glucose in animals supplemented with 20% saccharose; type: in vivo, Winstar rats; settings: 100 µg/Kg; 15th and 30th days of treatment
Description: as §2, with “Winstar” for “Wistar”

[18] = tested on: animals supplemented with 20% saccharose; experiment: Determination of the adiposity ratio in animals supplemented with 20% saccharose (Example 26); type: in vivo, Wistar rats; settings: 600µg/Kg; 30 days-treatment; in comparison to further groups
Description: (§4) Wistar rats fed with standard regimen supplemented with 20% saccharose were used in the drinking water during 60 days before and during the 30 days-treatment with SALINE (negative control), Rimonabant (positive control), Peptide 19 (Pep 19) in the concentration of 100µg/Kg, 300µg/Kg and 600µg/Kg.

[19] = tested on: animals supplemented with 20% saccharose; experiment: Determination of the amount of mesenteric adipose tissue in animals supplemented with 20% saccharose; type: in vivo, Wistar rats; settings: after the 30th day of treatment, in comparison to further groups
Description: as §2

[20] = tested on: animals supplemented with 20% saccharose; experiment: Determination of the blood pressure in animals supplemented with 20% saccharose; type: in vivo, Wistar rats; settings: 600µg/Kg; 30 days-treatment; in comparison to further groups
Description: as §4

[21] = tested on: animals supplemented with 20% saccharose; experiment: Determination of the amount of gonadal adipose tissue in animals supplemented with 20% saccharose; type: in vivo, Wistar rats; settings: 100µg/Kg; after the 30th day of treatment; in comparison to further groups
Description: as §2

[22] = tested on: CB2 receptor; experiment: ELISA with striate membranes for CB2 receptor, receptor activating percentage regarding the control; type: biochemical
Description: as §1

Cyclic peptide -Asp-Ile-Ile-Ala-Asp-Asp-Glu-Pro-Leu-Thr- [Example 6]
Result (change in the activity of the cyclic form) ([1]; Table 1 summary, in vitro, receptor not stated): Change in the activity was not detected

DIIADDAPLT [SeqID:3]
Result (activity regarding the CB1) ([1]; Table 1 summary): Reduces the activity regarding the CB1 (comparatively the SeqID:1).
activity in CB1 receptors [1]: smaller activity in CB1 receptors

DIIADDE [SeqID:4]
Result (activity regarding the CB1) ([1]; Table 1 summary): Increases the activity regarding the CB1
activity in CB1 receptors [1]: improved inverse agonist activity in CB1 receptors

DIIADDEALT [SeqID:5]
Result (high dosages) ([1]; Table 1 summary, high dosages): became agonist
Result (low dosages) ([1]; Table 1 summary, low dosages): the inverse agonist activity was not detected
activity in the endocannabinoid receptors, high dosages ([1]; high dosages, different dosages of each drug, 2 hours (Figure 14, CB1 receptor)): agonist activity
activity in the endocannabinoid receptors, low dosages ([1]; low dosages, different dosages of each drug, 2 hours (Figure 14, CB1 receptor)): activity inverse agonist

DIIADDEPLT [SeqID:1]
insulinemia [2]: lower average of insulinemia
adiposity ratio (adipose tissue total mass corrected by the body weight) [3]: biggest amounts of adipose tissue
weight percentages (% from the animals weight treated with SALINE) [4]: lower weight percentages
inguinal adipose tissue mass [5]: smaller
retroperitoneal adipose tissue mass [6]: smaller
adiposity ratio ([7]; 3 days of treatment orally): reduction
brown adipose tissue ([7]; 3 days of treatment orally): reduction
brown adipose tissue activation ([7]; 3 days of treatment orally): activation
inguinal adipose tissue ([7]; 3 days of treatment orally): reduction
retroperitoneal adipose tissue ([7]; 3 days of treatment orally): reduction
activity when administered orally ([7]; oral administration): has activity even when administered orally
percentages of triglycerides (% from SALINE) [8]: lower percentages of triglycerides
brown adipose tissue mass [9]: smaller
serum leptin concentration [10]: smaller
adiposity ratio [11]: smaller
cholesterol percentages (% from SALINE) ([12]; 50µg/Kg): lower cholesterol percentages
cholesterol percentages (% from SALINE) ([12]; 100 µg/Kg): lower cholesterol percentages
activity in CB1 receptors [1]: inverse agonist of the CB1 receptor
gonadal adipose tissue mass [13]: no difference
inguinal adipose tissue, corrected by the body weight [14]: biggest amounts of inguinal adipose tissue
depression (forced swim, immobility time) [15]: does not cause depression
mesenteric adipose tissue mass [16]: no difference
glycaemia [17]: lower glycaemia
adiposity ratio (adipose tissue total mass corrected by the body weight) [18]: lower amounts of adipose tissue
mesenteric adipose tissue, corrected by the body weight ([19]; 50 µg/Kg): lower percentages of mesenteric adipose tissue
mesenteric adipose tissue, corrected by the body weight ([19]; 100µg/Kg): lower percentages of mesenteric adipose tissue
blood pressure [20]: lower blood pressure
gonadal adipose tissue, corrected by the body weight [21]: lower percentages of gonadal adipose tissue

DILADDEPLT [SeqID:2]
Result (activity regarding the CB1) ([1]; Table 1 summary): Reduces the activity regarding the CB1
Result (activity in CB2) ([22]; Table 1 summary): raises a strong inverse agonist activity in CB2
activity in CB2 receptors ([22]; striate membranes 5µg/pool, 1 µM of each drug, 2 hours, ambient temperature): inverse agonist of the CB2 receptor

— patent EP2878306B1, “MODIFIED PEPTIDE, CB RECEPTOR LIGAND, KIT, IN VITRO PROCESS FOR […] RECEPTOR BONDS, USES, PHARMACEUTICAL COMPOSITION FOR […] RECEPTOR ACTIVITY” (Proteimax Biotecnologia Ltda, priority 2012, dated 2014)
